Experimental data reported in US20070154444A1, “Extracts from black yeast for whitening skin” (priority 2005, published 2007).

System: UV-B induced tan of the skin
Test: Whitening action: fading of UV-B induced tan on the backs of volunteer panelists, Minolta Chromameter reflectance
Assay type: in vivo, human
Details: FIG. 5; 1% extract or 2% kojic acid in Example 4 composition; 2 mg/cm^2 once a day; nine panelists
Description: A comparative study is done to determine the whitening efficacy of an Exophiala mansonii—derived enzyme extract in comparison to the efficacy of a known tyrosinase inhibitor, kojic acid. More specifically, the study was designed to study the lightening effect of these materials (reduction in tanning) using the fading of UV-B induced tan as a marker. Two samples are prepared. The first sample contains the composition described in Example 4. The second sample has the same composition as that described in Example 4 except that 2% kojic acid is substituted for the 1 % Exophiala mansonii enzyme extract. Nine volunteers participate in the study. […] Tanning is observed for six days after irradiation at which point color measurements are made using a Minolta Chromameter which measures the difference in reflectance of the skin, L. The change in the value of the difference in reflectance, ΔL*, is measured against a baseline skin color value of untreated irradiated skin measured on day 6. […] Chromameter readings are obtained on day 6, 8, 11, 13 and 15. The observed reflectance values for all the time points are recorded, and the area under the curve for each test site was calculated. The Whitening Factor is calculated as the area under the curve of the treated site subtracted from the untreated site, and is shown in FIG. 5.

## O=c1cc(CO)occ1O [kojic acid]
  Whitening Factor (area under the curve of the treated site subtracted from the untreated site): 1.8
